Experimental data taken from patent US10738028B2, “Spiro three-membered ring, spiro five-membered ring peptide deformylase inhibitor and use thereof in antibacteria and anti-tumor” (priority 2016, dated 2020).
Values after ≈ are worked out from the molar mass of the structure shown. Read-outs that look alike come from different tables or passages of the source.

Experiments:
[1] = test system: the test strains; experiment: MIC against the test strains (strain not given); assay type: cell-based; details: read-out: MIC (azole amide bioisosteres)
Excerpt: 1. The invention adopts the two-fold agar dilution method recommended by the operating procedure of antimicrobial susceptibility testing set by American Clinical and Laboratory Standards Institute (CLSI) to determine the Minimum Inhibitory Concentration (MIC) of the test samples against the tested strains.

[2] = test system: methemoglobin in blood samples of three healthy volunteers; experiment: Toxicity on methemoglobin in vitro (whole blood with S9 and NADPH, absorbance at 630 nm); assay type: cell-based, human; details: 500 μM compound; whole blood + S9 + NADPH; 5 hours at 37° C.
Outline: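 Fresh EDTA whole blood from three healthy volunteers incubated 5 h at 37 °C with human liver S9 (2 mg/mL), NADPH-generating system and compound at 500 μM final. Lysed in 1% Triton X-100; MetHb % from 630 nm absorbance relative to ferricyanide-oxidized blood.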

[3] = test system: HCT-116 colorectal cancer cell line; experiment: CCK-8 proliferation inhibition; assay type: cell-based; details: Homo sapiens, HCT-116, 72 h, read-out: HCT116 inhibition rate/%
Outline: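 Proliferation over 72 hours of compound treatment was measured with CCK-8 against a 1‰ DMSO control.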

[4] = test system: methicillin-resistant Staphylococcus epidermidis (MRSE); experiment: MIC, two-fold agar dilution (CLSI), clinical isolates; assay type: cell-based
Outline: (§1)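 Susceptibility was tested using CLSI two-fold agar dilution against the strains examined.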

[5] = test system: Escherichia coli (including ESBLs, non-ESBLs); experiment: as above; assay type: cell-based
Outline: as §1

[6] = test system: Enterococcus faecalis (EFA); experiment: as above; assay type: cell-based
Outline: as §1

[7] = test system: methicillin-resistant Staphylococcus aureus (MRSA); experiment: as above; assay type: cell-based
Outline: as §1

[8] = test system: methicillin-sensitive Staphylococcus epidermidis (MSSE); experiment: as above; assay type: cell-based
Outline: as §1

[9] = test system: methicillin-sensitive Staphylococcus aureus (MSSA); experiment: as above; assay type: cell-based
Outline: as §1

[10] = strain printed MRSA 14-1 (second line of that name, r23, before MRSE 14-2)

SMILES | MIC [1] [µg/mL] | MetHb % (n = 3) [2] [%] | MIC (anti-bacterial activity) ([4]; strain MRSE 14-2) [µg/mL] | MIC (anti-bacterial activity) ([4]; strain MRSE 14-3) [µg/mL] | MIC (anti-bacterial activity) ([4]; strain MRSE 14-4) [µg/mL] | MIC (anti-bacterial activity) ([5]; strain ECO+ 14-1) [µg/mL] | MIC (anti-bacterial activity) ([5]; strain ECO+ 14-2) [µg/mL] | MIC (anti-bacterial activity) ([5]; strain ECO− 14-1) [µg/mL] | MIC (anti-bacterial activity) ([5]; strain ECO− 14-2) [µg/mL] | MIC (anti-bacterial activity) ([6]; strain EFA 14-1) [µg/mL] | MIC (anti-bacterial activity) ([6]; strain EFA 14-2) [µg/mL] | MIC (anti-bacterial activity) ([6]; strain EFA 14-3) [µg/mL] | MIC (anti-bacterial activity) ([6]; strain EFA 14-5) [µg/mL] | MIC (anti-bacterial activity) ([7]; strain MRSA 14-1) [µg/mL] | MIC (anti-bacterial activity) ([7]; strain MRSA 14-2) [µg/mL] | MIC (anti-bacterial activity) ([7]; strain MRSA 14-4) [µg/mL] | MIC (anti-bacterial activity) ([7]; strain MRSA 14-5) [µg/mL] | MIC (anti-bacterial activity) [7, 10] [µg/mL] | MIC (anti-bacterial activity) ([8]; strain MSSE 14-1) [µg/mL] | MIC (anti-bacterial activity) ([8]; strain MSSE 14-2) [µg/mL] | other results
CCCC[C@H](CN(O)C=O)C(=O)N1CC2(CC2)C[C@H]1c1nc(-c2cccnc2)no1 [Example 11, N-hydroxy-N—((R)-2-((S)-6-(3-(pyridin-3-yl)-1,2,4-oxadiazol-5-yl)-5-azaspiro[2.4]heptane-5-carbonyl)hexyl)carboxamide] | 0.5 to 2 (≈ 1.21 to 4.84 µM) | 1.26 ± 0.07 | 0.25 (≈ 0.605 µM) | 0.125 (≈ 0.302 µM) | 0.5 (≈ 1.21 µM) | 1 (≈ 2.42 µM) | 32 (≈ 77.4 µM) | 64 (≈ 155 µM) | 64 (≈ 155 µM) | 2 (≈ 4.84 µM) | 2 (≈ 4.84 µM) | 2 (≈ 4.84 µM) | 2 (≈ 4.84 µM) | 0.5 (≈ 1.21 µM) | 0.5 (≈ 1.21 µM) | 0.5 (≈ 1.21 µM) | 0.5 (≈ 1.21 µM) | 0.25 (≈ 0.605 µM) | 0.125 (≈ 0.302 µM) | 0.5 (≈ 1.21 µM) | inhibition at 30 µM [3]: 17%; MIC (anti-bacterial activity) ([8]; strain MSSE 14-3): 0.125 µg/mL (≈ 0.302 µM); MIC (anti-bacterial activity) ([8]; strain MSSE 14-4): 0.5 µg/mL (≈ 1.21 µM); MIC (anti-bacterial activity) ([9]; strain MSSA 14-1): 0.5 µg/mL (≈ 1.21 µM); MIC (anti-bacterial activity) ([9]; strain MSSA 14-2): 0.5 µg/mL (≈ 1.21 µM); MIC (anti-bacterial activity) ([9]; strain MSSA 14-3): 0.5 µg/mL (≈ 1.21 µM); MIC (anti-bacterial activity) ([9]; strain MSSA 14-4): 0.5 µg/mL (≈ 1.21 µM)
CCCC[C@H](CN(O)C=O)C(=O)N1CC2(CC2)C[C@H]1c1nnc(-c2ccccn2)o1 [Example 12, N-hydroxy-N—((R)-2-((S)-6-(5-(pyridin-2-yl)-1,3,4-oxadiazol-2-yl)-5-azaspiro[2.4]heptane-5-carbonyl)hexyl)carboxamide] | 0.5 to 2 (≈ 1.21 to 4.84 µM) | 1.22 ± 0.02 | 0.5 (≈ 1.21 µM) | 0.5 (≈ 1.21 µM) | 4 (≈ 9.67 µM) | 0.5 (≈ 1.21 µM) | 64 (≈ 155 µM) | 128 (≈ 310 µM) | 64 (≈ 155 µM) | 4 (≈ 9.67 µM) | 8 (≈ 19.3 µM) | 8 (≈ 19.3 µM) | 8 (≈ 19.3 µM) | 4 (≈ 9.67 µM) | 4 (≈ 9.67 µM) | 4 (≈ 9.67 µM) | 2 (≈ 4.84 µM) | 1 (≈ 2.42 µM) | 1 (≈ 2.42 µM) | 1 (≈ 2.42 µM) | inhibition at 30 µM ([3]; concentration of 30 μM, 72 hours, CCK-8): 13%; MIC (anti-bacterial activity) ([8]; strain MSSE 14-3): 0.5 µg/mL (≈ 1.21 µM); MIC (anti-bacterial activity) ([8]; strain MSSE 14-4): 1 µg/mL (≈ 2.42 µM); MIC (anti-bacterial activity) ([9]; strain MSSA 14-1): 4 µg/mL (≈ 9.67 µM); MIC (anti-bacterial activity) ([9]; strain MSSA 14-2): 2 µg/mL (≈ 4.84 µM); MIC (anti-bacterial activity) ([9]; strain MSSA 14-3): 2 µg/mL (≈ 4.84 µM); MIC (anti-bacterial activity) ([9]; strain MSSA 14-4): 2 µg/mL (≈ 4.84 µM)
CCCC[C@H](CN(O)C=O)C(=O)N1CC2(CC2)C[C@H]1c1nnc2ccccn12 [Example 13, N—((R)-2-((S)-6-([1,2,4]triazole[4,3-a]pyridin-3-yl)-5-azaspiro[2.4]heptane-5-carbonyl)hexyl)-N-hydroxyamide] | 0.5 to 2 (≈ 1.3 to 5.19 µM) | 1.15 ± 0.06 | 0.5 (≈ 1.3 µM) | 0.25 (≈ 0.649 µM) | 1 (≈ 2.59 µM) | 2 (≈ 5.19 µM) | 128 (≈ 332 µM) | 128 (≈ 332 µM) | 128 (≈ 332 µM) | 4 (≈ 10.4 µM) | 8 (≈ 20.8 µM) | 8 (≈ 20.8 µM) | 8 (≈ 20.8 µM) | 1 (≈ 2.59 µM) | 1 (≈ 2.59 µM) | 1 (≈ 2.59 µM) | 1 (≈ 2.59 µM) | 0.5 (≈ 1.3 µM) | 0.25 (≈ 0.649 µM) | 0.5 (≈ 1.3 µM) | inhibition at 30 µM [3]: 13%; MIC (anti-bacterial activity) ([8]; strain MSSE 14-3): 0.5 µg/mL (≈ 1.3 µM); MIC (anti-bacterial activity) ([8]; strain MSSE 14-4): 0.5 µg/mL (≈ 1.3 µM); MIC (anti-bacterial activity) ([9]; strain MSSA 14-1): 1 µg/mL (≈ 2.59 µM); MIC (anti-bacterial activity) ([9]; strain MSSA 14-2): 1 µg/mL (≈ 2.59 µM); MIC (anti-bacterial activity) ([9]; strain MSSA 14-3): 1 µg/mL (≈ 2.59 µM); MIC (anti-bacterial activity) ([9]; strain MSSA 14-4): 1 µg/mL (≈ 2.59 µM)
